Data taken from patent US5153181A, “Pharmaceutical compositions comprising organic polymers containing inorganic anionic groups and method of prophylaxis and treatment of retrovirus infections in mammals using said compositions” (priority 1986, dated 1992).
Read-outs that look alike come from different tables or passages of the source.

Key:
[1] = target: T1, SR-D-associated reverse transcriptase (Rous sarcoma virus - Schmidt-Ruppin B, UniProt O92956); assay type: biochemical
T1 construct: alpha/beta heterodimer cut from Gag-Pol polyprotein

[2] = known from the literature; cited from earlier work
[3] = LD50 taken from published literature; details: in vivo; calculated from MW
Excerpt: The LD50 values are known from the literature.
The results shown in FIGS. 1A and B allow to determine the concentration of the inhibitors which result in 90% or 99% inhibition. The quotient of the LD50 values (taken from published literature) and the inhibitor concentrations indicated in FIG. 1 is the efficiency index shown in Table I.

[4] = cited from earlier work
[5] = poly(rA) template, oligo(dT)10 primer, FIGS. 1A and B

T1 sequence (O92956 709-1567): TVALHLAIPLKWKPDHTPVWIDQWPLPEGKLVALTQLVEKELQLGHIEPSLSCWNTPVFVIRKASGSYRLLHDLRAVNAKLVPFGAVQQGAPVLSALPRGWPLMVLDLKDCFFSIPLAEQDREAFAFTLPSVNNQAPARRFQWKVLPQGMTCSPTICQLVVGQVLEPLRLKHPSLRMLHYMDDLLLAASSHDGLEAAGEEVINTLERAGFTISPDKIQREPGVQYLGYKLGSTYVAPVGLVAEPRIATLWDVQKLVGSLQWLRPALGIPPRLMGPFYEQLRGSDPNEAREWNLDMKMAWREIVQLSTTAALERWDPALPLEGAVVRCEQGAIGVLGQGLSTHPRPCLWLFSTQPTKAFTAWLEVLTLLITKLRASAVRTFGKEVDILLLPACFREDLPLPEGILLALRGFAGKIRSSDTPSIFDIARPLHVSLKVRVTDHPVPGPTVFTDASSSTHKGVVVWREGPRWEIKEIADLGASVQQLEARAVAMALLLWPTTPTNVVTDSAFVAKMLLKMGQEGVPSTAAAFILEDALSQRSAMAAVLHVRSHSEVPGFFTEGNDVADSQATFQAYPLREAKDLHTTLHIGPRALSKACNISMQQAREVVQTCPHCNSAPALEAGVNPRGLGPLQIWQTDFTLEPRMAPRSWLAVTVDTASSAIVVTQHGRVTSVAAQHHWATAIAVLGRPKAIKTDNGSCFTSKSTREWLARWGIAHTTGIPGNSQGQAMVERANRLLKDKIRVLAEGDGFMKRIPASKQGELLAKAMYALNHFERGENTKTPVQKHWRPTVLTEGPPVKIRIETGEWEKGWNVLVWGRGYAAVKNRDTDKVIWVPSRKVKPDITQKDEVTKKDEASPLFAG

Compound	Inhibition of RNA-dependent DNA synthesis (3H-TMP incorporation) [1, 5]	also measured
dextran sulfate MW 8,000	efficient inhibitors	
Cc1ccc(C(=O)Nc2ccc(S(=O)(=O)O)c3cc(S(=O)(=O)O)cc(S(=O)(=O)O)c23)cc1NC(=O)c1cccc(NC(=O)Nc2cccc(C(=O)Nc3cc(C(=O)Nc4ccc(S(=O)(=O)O)c5cc(S(=O)(=O)O)cc(S(=O)(=O)O)c45)ccc3C)c2)c1 [suramin]		Inhibition of RNA-dependent DNA synthesis (3H-TMP incorporation) [1]: Somewhat less inhibitory; LD50 [2]: 40 mg/kg
heparin	Low inhibitory effect	
dextran sulfate MW 5000	Low inhibitory effect	
chondroitin sulfate	Low inhibitory effect	
dextran sulfate MW 500,000	efficient inhibitors	
diethylamine ethyl-dextran [DEAE-dextran]	Low inhibitory effect	
dextran	Low inhibitory effect	
O=C(O)P(=O)(O)O [foscarnet]	Somewhat less inhibitory	LD50 [3]: 500 mg/kg; Toxicity in clinical trials [4]: considerable toxicity
pentosan polysulfate MW 5,000	Somewhat less inhibitory	
